The values below come from PubChem BioAssay AID1996.

In brackets after ≈: the same amount, converted by molar mass. Where only a bound is given, the exact number is not on record here.

The conditions of the data set: buffer; pH 7.4; 200.0 µM.
Take `CC(=O)Nc1ccc(-c2csc(Nc3ncccn3)n2)cc1`: the solubility (kinetic) (in general, solubility judged after dilution from a stock solution rather than from solid) worked out at 0.4 µg/mL (≈ 1.28 µM).
For `CCC1(C)Cc2ccccc2-c2nc(SC)[nH]c(=O)c21` (stereo not drawn), the kinetic solubility is below 0.3 µg/mL.
With `CCOc1ncccc1C(=O)Nc1ncc(C)s1`, the solubility (kinetic) worked out at 15.5 µg/mL (≈ 58.9 µM).
In turn, `Fc1ccccc1-c1nc(-c2ccncc2)no1` returned a solubility (kinetic) of 6 µg/mL (≈ 24.9 µM).
Then `Cc1ccc(CNC(=O)N2CCN(S(=O)(=O)c3ccccc3)CC2)cc1`, with 8.3 µg/mL (≈ 22.2 µM); and `COc1ccc(CC(C)Nc2cccc(F)c2)cc1` (stereo not drawn), with 1 µg/mL (≈ 3.86 µM).
Then `COc1cccc2sc(/N=C/N(C)C)nc12`, with 33.6 µg/mL (≈ 143 µM).
Then `Cc1cc(OCC(=O)Nc2ccncc2)ccc1[N+](=O)[O-]`, with 35.8 µg/mL (≈ 125 µM).
Turning to `C[n+]1cc(-c2ccccc2)oc1-c1ccccc1`, the solubility (kinetic) turned out to be 24.4 µg/mL.
Under `COc1cc(C(=O)OCCNC(=O)c2cccnc2)cc(OC)c1OC.Cl` stands above 59.5 µg/mL; under `COc1cc([N+](=O)[O-])ccc1NC(=S)N1CCN(c2ccccn2)CC1`, 12.2 µg/mL (≈ 32.7 µM); under `Cc1cccc(C)c1NC(=S)N(CCN(C)C)Cc1cccs1`, 45.8 µg/mL (≈ 132 µM).
Under `Cc1cccc(C(=O)NCC(=O)OCC(=O)c2ccc(Br)s2)c1` stands above 59.4 µg/mL; under `Cc1onc(-c2ccccc2)c1C(=O)O/N=C(\N)c1ccc([N+](=O)[O-])o1`, 11.6 µg/mL (≈ 32.6 µM); under `COc1cccc(N2CN(C3CCCCC3)CNC2=S)c1`, above 45.8 µg/mL.
Then `CC(=O)c1ccc(N2CCN(C(=O)Cc3cccs3)CC2)cc1`, with 47.3 µg/mL (≈ 144 µM); and `Cc1c(Cl)cccc1NC(=O)CS(=O)(=O)c1ccccc1`, with 30.3 µg/mL (≈ 93.6 µM); and `COC(=O)C1=C(C)NC(C)=C(C(=O)OC)C1c1ccc(C)o1`, with 13 µg/mL (≈ 42.6 µM).
`Cc1cccc(C)c1NC(=O)C1C2C=CC(C2)C1C(=O)O` (stereo not drawn) came in with a kinetic solubility of 39.7 µg/mL (≈ 139 µM).
Then `CCOc1ccc(C(NC(=O)CC)c2c(O)ccc3ccccc23)cc1` (stereo not drawn), with 2 µg/mL (≈ 5.72 µM); and `O=C1OC2(O)C3C4C=CC(C4)C3C(=O)N2c2ccccc21` (stereo not drawn), with above 42.5 µg/mL.
The molecule `CN(C)S(=O)(=O)c1ccc(C(=O)OCC2CCCO2)cc1` (stereo not drawn) registered a solubility (kinetic) above 47 µg/mL.
Then `Cc1ccsc1C(=O)Nc1ccccc1N1CCCC1`, with 27.6 µg/mL (≈ 96.4 µM); and `CS(=O)(=O)N1CCC(C(=O)N2CCN(c3ccccc3F)CC2)CC1`, with 53.1 µg/mL (≈ 144 µM); and `CS(=O)(=O)N(CC(=O)NC1CCCC1)C1CCCCC1`, with above 45.4 µg/mL.
On to `Nc1nc(SCc2ccc(F)cc2)ns1`, for which the solubility (kinetic) is 33.6 µg/mL (≈ 139 µM).
Then `Cn1c(SCc2ccc(Br)cc2)nc2c(c1=O)SCC2`, with below 0.4 µg/mL; and `Cc1ccc(NC(=O)NCc2nc3ccccc3n2C)cc1`, with 34.8 µg/mL (≈ 118 µM).
Under `O=C1/C(=C/c2cccc([N+](=O)[O-])c2)CSc2ccc(Cl)cc21` stands below 0.7 µg/mL; under `CCN1CCN(C(=O)/C=C/c2ccc(OC)cc2)CC1`, above 41.2 µg/mL; under `CC(C)CN(C(=O)CN(C)CC(=O)Nc1ccc(Cl)c(C(F)(F)F)c1)c1c(N)n(CC(C)C)c(=O)[nH]c1=O`, 6 µg/mL (≈ 10.7 µM).
Under `Cc1cc(=O)n(Cc2ccccc2)c2c(C)cccc12` stands below 0.6 µg/mL; under `COc1ccccc1C(CNc1ncccc1[N+](=O)[O-])N(C)C` (stereo not drawn), above 47.5 µg/mL.
`Cc1ccc2nc(SCC(=O)NC3CCCC3)[nH]c2c1`: the solubility (kinetic) came out at 36.1 µg/mL (≈ 125 µM).
`COc1cccc([C@@]2(O)CCCC[C@@H]2CN(C)C)c1` displayed a kinetic solubility above 39.5 µg/mL.
Then `O=C(/C=C/c1cccs1)c1ccc([N+](=O)[O-])cc1`, with 1.9 µg/mL (≈ 7.33 µM); and `O=c1nccc(N/N=C/c2cccc(O)c2)[nH]1`, with above 34.5 µg/mL; and `Cc1nc2ccsc2c(=O)n1-c1ccccc1Cl`, with above 41.5 µg/mL.
The molecule `Cc1ccc(NC(=O)NCc2cccn2C)cc1C` came in with a solubility (kinetic) of 2.2 µg/mL (≈ 8.55 µM).
Molecule `OC(CN1CCN(c2ccccc2F)CC1)c1ccc(F)cc1` (stereo not drawn) registered a solubility (kinetic) above 47.8 µg/mL.
Turning to `Cc1ccnc(NC(=O)CNC(=O)c2ccc3c(c2)OCO3)c1`, the solubility (kinetic) came to 22.3 µg/mL (≈ 71.2 µM).
`COc1ccccc1CNC(=O)C(CCSC)NC(=O)c1cccc(S(=O)(=O)N2CCOCC2)c1` (stereo not drawn) showed a kinetic solubility of 3.4 µg/mL (≈ 6.52 µM).
Take `O=C1NC(=S)S/C1=C\c1ccc2ccccc2c1`: the kinetic solubility stood at 1.1 µg/mL (≈ 4.05 µM).
Turning to `O=C(CCc1ccccc1)NC(=S)NCc1ccco1`, the solubility (kinetic) amounted to 2.7 µg/mL (≈ 9.36 µM).
`CCCCOc1c(Br)cc(CNCCCN2CCOCC2)cc1OC.Cl`: the kinetic solubility is 60.9 µg/mL.
The molecule `COc1ccc(-c2csc(NC(=O)[C@H](C)N3C(=O)C4CC=CCC4C3=O)n2)cc1OC` (stereo partly drawn) registered a kinetic solubility of 38.2 µg/mL (≈ 86.5 µM). Against the preceding molecule, the solubility kinetic is about 1.6-fold lower.
Consider `Cc1ccc(NC(=S)NC(=O)C2CC2)cc1Cl`, for which the kinetic solubility was 2.9 µg/mL (≈ 10.8 µM).
Turning to `CC(OC(=O)CN1C(=O)c2ccccc2C1=O)C(=O)NC1CCCCC1` (stereo not drawn), the solubility (kinetic) was above 53.8 µg/mL.
Under `O=C(NCC(=O)N1CCN(Cc2ccccc2)CC1)c1cc(Cl)cc([N+](=O)[O-])c1` stands above 62.5 µg/mL; under `CC(=O)c1ccc(NC(=S)NCCCn2ccnc2)cc1`, above 45.4 µg/mL.
Under `O=C(O)c1ccccc1-c1ncc(-c2ccccc2)o1` stands above 39.8 µg/mL; under `CC(C)c1ccc(C(O)c2nc3ccccc3n2C)cc1` (stereo not drawn), 10.3 µg/mL (≈ 36.7 µM).
Under `COc1ccc2oc(=N)c(C(=O)Nc3ccc(C)cc3)cc2c1` stands 0.6 µg/mL (≈ 1.95 µM); under `O=C(Nc1nc(-c2cccnc2)cs1)c1ccc([N+](=O)[O-])cc1`, 3.2 µg/mL (≈ 9.81 µM); under `O=C1C=C(N2CCCCCC2)C2(CCCCC2)O1`, 37.1 µg/mL (≈ 149 µM).
Consider `CN1C(=O)C(=O)/C(=C(/O)c2ccccc2)C1c1ccc([N+](=O)[O-])cc1` (stereo not drawn), for which the kinetic solubility was above 50.7 µg/mL.
Then `CN1CC(C(=O)c2ccc(Cl)cc2)C(c2ccccc2F)C1` (stereo not drawn), with above 47.7 µg/mL; and `O=C(COc1ccc([N+](=O)[O-])cc1Cl)NCCN1C(=O)CSC1=O`, with above 56.1 µg/mL; and `O=C(NCC(=O)N1CCc2ccccc2C1)c1ccccc1Cl`, with above 49.3 µg/mL.
Under `O=S(=O)(Nc1ncccn1)c1ccccc1` stands above 35.3 µg/mL; under `CC(C)(C)c1ccc(C(=O)Nc2ccc(Oc3cccnc3)nc2)cc1`, 14.1 µg/mL (≈ 40.6 µM); under `COc1ccc(-c2nc(CCl)cs2)cc1OC.Cl`, 41.8 µg/mL.
Under `Cc1ccc(Nc2c([N+](=O)[O-])ccc3nonc23)c(C)c1` stands below 0.2 µg/mL; under `Cc1ccc2[nH]c(CSc3ccccc3)cc(=O)c2c1`, 14.9 µg/mL (≈ 53 µM).
Regarding `COc1cc2cc(-c3ccc(OC)c(OC)c3C)nc(N)c2cc1OC`, the solubility (kinetic) was 46.8 µg/mL (≈ 132 µM).
Then `COc1ccc(OCC(O)CNC(=O)c2cccs2)cc1` (stereo not drawn), with 36.9 µg/mL (≈ 120 µM).
`CCOC(=O)C(=CNc1ccc2c(c1)CCN2C(C)=O)C(=O)OCC` yielded a kinetic solubility of 9.9 µg/mL (≈ 28.6 µM).
Then `CCOc1cc(/C=C/c2nc3ccccc3c(=O)[nH]2)ccc1O`, with 32.4 µg/mL (≈ 105 µM); and `COc1ccc(C(=O)/C=C/c2cccnc2)c(OC)c1`, with above 40.4 µg/mL; and `OC(CNCc1ccccc1C(F)(F)F)C(F)(F)F` (stereo not drawn), with above 43.1 µg/mL.
Under `CCOc1ccc(Nc2nc(NCc3ccco3)nc(N)c2[N+](=O)[O-])cc1` stands below 0.1 µg/mL; under `CN1CCN(c2nc3ccccc3nc2NS(=O)(=O)c2ccc(Br)cc2)CC1`, above 69.4 µg/mL; under `CCN(CC(=O)Nc1c(F)cccc1F)C(=O)c1cnccn1`, above 48 µg/mL.
Then `COc1cccc(/C=C/c2[nH]c(=O)[nH]c(=O)c2[N+](=O)[O-])c1O`, with above 45.8 µg/mL.
The molecule `CCNC(=O)CCSc1nc(C)cc(C)n1` came in with a kinetic solubility above 35.9 µg/mL.
Then `O/N=C(/c1ccc(F)cc1)C1CC1c1c(F)cccc1Cl` (stereo not drawn), with 5 µg/mL (≈ 16.2 µM); and `O=C(N/N=C/C1CCCCC1)c1ccccc1-n1cccc1`, with above 44.3 µg/mL.
Then `Oc1ccc2ccccc2c1C=NC1CCCCC1`, with above 38 µg/mL; and `COc1ccc2[nH]c(C(=O)NCc3ccccc3)cc2c1`, with 1.3 µg/mL (≈ 4.64 µM); and `CC(C)C(NC(=O)c1ccc([N+](=O)[O-])cc1Cl)C(=O)N1CCCC1` (stereo not drawn), with above 53.1 µg/mL.
Then `O=C(NC1CCCCCC1)C1CCCN(c2ncccn2)C1` (stereo not drawn), with above 45.4 µg/mL; and `Cc1ccc2[nH]c(C(=O)N3CCN(C=O)CC3)cc2c1`, with above 40.7 µg/mL; and `CC1CCN(c2ccc([N+](=O)[O-])c(SCCO)c2)CC1`, with 28.4 µg/mL (≈ 95.8 µM).
`Cc1cc(C(=O)Nc2ccccc2N2CCOCC2)no1` displayed a kinetic solubility of 19.2 µg/mL (≈ 66.8 µM).
Then `CSc1ccccc1C(=O)N1CCCCC1`, with above 35.3 µg/mL; and `C=CCNC(=O)C(=O)NCCCN1CCOCC1`, with above 38.3 µg/mL; and `CCCCc1c(C)nc(N2CCCC2)[nH]c1=O`, with above 35.3 µg/mL.
Then `Cc1cc(C(=O)COC(=O)c2cccn2C)c(C)n1Cc1ccco1`, with 2.8 µg/mL (≈ 8.23 µM).
Then `COc1cc(CN2CCCN(C)CC2)c([N+](=O)[O-])cc1OC`, with 39 µg/mL (≈ 126 µM); and `O=C(NCc1ccccc1F)c1cccc(S(=O)(=O)N2CCCCC2)c1`, with 5.8 µg/mL (≈ 15.4 µM).
For the molecule `Cc1nc2oc3c(=O)[nH]cnc3c2c2c1COC(C)(C)C2`, the solubility (kinetic) worked out at 40 µg/mL (≈ 140 µM).
Under `COc1ccccc1NC(=S)NCc1ccccc1` stands 14.8 µg/mL (≈ 54.3 µM); under `O=C(Nc1ccc(N2CCCC2)cc1)c1ccccc1[N+](=O)[O-]`, 2.4 µg/mL (≈ 7.71 µM); under `c1ccc(CN2CCN(Cc3c[nH]c4ccccc34)CC2)cc1`, above 45.8 µg/mL.
Under `NC(=O)C1CCN(CCC(=O)Nc2ccc(F)c(F)c2)CC1` stands above 46.7 µg/mL; under `Cc1cc(NC(=O)CSc2cc(C)c3ccccc3n2)no1`, 2.2 µg/mL (≈ 7.02 µM).
Molecule `COc1ccc(CCNC(=O)c2cccs2)cc1OC` showed a kinetic solubility of 33.8 µg/mL (≈ 116 µM).
Then `CCC(C)(NC=O)C(=O)Nc1c(C)cccc1C` (stereo not drawn), with above 37.2 µg/mL; and `CC(=O)Nc1nc2ccc(S(=O)(=O)N3CCCC3)cc2s1`, with 3.1 µg/mL (≈ 9.53 µM); and `CCCOc1ccc(CCCN=C(N)N)cc1Cl.O=S(=O)(O)O`, with 42.2 µg/mL.
Then `CCC(=O)Nc1c(-c2ccc(C)cc2)c(=O)c2ccccc2n1C`, with 20.8 µg/mL (≈ 64.9 µM); and `CC(=O)c1cccc(NC(=S)NCc2ccco2)c1`, with 33.7 µg/mL (≈ 123 µM).
`CCOC(=O)c1cn(CC)c2c(ccc3ccccc32)c1=O` gave a solubility (kinetic) below 0.6 µg/mL.
